Experimental data: patent US12661415B2, “Isoindolinone compounds and imaging agents for imaging Huntingtin protein” (CHDI Foundation, Inc., priority 2021, dated 2026)

How the values were obtained:
[1] = Unbound brain fraction (fu,brain) in mouse brain by equilibrium dialysis; format: in vitro ADME; conditions: 20% mouse brain homogenate, 5 μM, equilibrium dialysis 6 h at 37° C., average of triplicate
Method: Compounds were tested for unbounded brain fraction (or free fraction in brain, fu,brain). It is an accepted standard in the CNS PET imaging field that compounds with low unbound fraction in brain (<5%) likely have high non-specific binding background that is undesirable for the detection of target binding. As a result, fu,brain is an important property in the design of PET ligands for brain imaging [see Zhang et al., Design and selection parameters to accelerate the discovery of novel central nervous system positron emission tomography (PET) ligands and their application in the development of a novel phosphodiesterase 2A PET ligand. J Med Chem 2013, 56 (11), 4568-79; Liu et al., Imaging Mutant Huntingtin Aggregates: Development of a Potential PET Ligand. J Med Chem 2020, 63 (15), 8608-8633].
Determining fu,brain in Mouse Brain by Equilibrium Dialysis. Dialysis membranes (12-14 kDa) (HTDialysis, Connecticut) were soaked in phosphate buffer (10 mM potassium phosphate and 0.8% sodium chloride buffer, pH 7.4 at 37° C.) for a minimum of 1 h, at this time ethanol was added (final concentration of 20% v/v) and membranes continued to soak for 30 min Mouse brain tissue was diluted in phosphate buffer in a […] (w/v) and homogenised using a Precellys 24 (Stretton Scientific, UK) to achieve a final concentration of 20% brain homogenate.
Test compounds prepared as DMSO stocks at 0.5 mM are diluted into brain homogenate to achieve 5 μM final substrate concentration (1% DMSO) and a t=0 sample was prepared by sampling 50 μL of into 400 μL of quench solution (Acetonitrile containing 0.1% formic acid and sulfisoxazole/tolbutamide/imipramine/labetalol 200 nM). Samples were matrix matched with the addition of 50 μL of assay buffer. The HTDialysis Teflon blocks (HTDialysis, Connecticut) were assembled with pre-soaked membrane between each receiver and donor well and clamped in the stainless steel pressure plate (HTDialysis, Connecticut). The lower compartment (acceptor side) was dosed with 120 μL of buffer and the upper compartment (donor side) was dosed with 120 μL of compound in homogenate. All test compounds and controls were completed in triplicate. The HT dialysis plate was sealed and incubated for 6 h at 37° C. shaking at 250 rpm.
Following the incubation, 50 μL of sample was removed from all donor and acceptor wells and transferred into a quench plate containing 400 μL of quench solution. All samples were matrix matched with 50 μL of the alternate blank matrix. Analytical samples were diluted 1:1 with water using the Janus Robot and analysed by LC-MS/MS.
Peak areas of donor and acceptor compartments were compared to determine percent unbound (% fu) and the average of triplicate measurements was reported. Reference T0 sample was used to calculate sample recovery (%). Control compounds were compared with historic and literature values to ensure assay functionality.

[2] = molecular target: T1, MBP-HTT(1-89)Q46-His(6×) (Exon1-Q46) protein aggregates (Homo sapiens, UniProt P42858, INS38QQQQQQQQQQQQQQQQQQQQQQQQQ); assay: Exon1-Q46 radioligand binding assay (RBA); conditions: aggregated Exon1-Q46 1 μM; 0.3 nM ligand [3H3-methyl]-5-((5-methoxypyridin-2-yl)methoxy)-2-(pyrazin-2-yl)benzo[d]oxazole; 60 minutes at 37° C.; read-out: Potency Range (IC50)
T1 construct: MBP-HTT(1-89)Q46-His(6×); His(6×) (C); made in house
Method: Exon1-Q46 Radioligand Binding Assay
For radioligand binding assays (RBA) MBP-HTT(1-89)Q46-His(6×) (“Exon1-Q46”) protein was generated based on a previous publication (Scherzinger et al. Cell, Vol. 90, 549-558, Aug. 8, 1997). For experiments 30 μM MBP-Exon1-Q46 was incubated with 150 μg/mL thrombin in assay buffer (150 mM NaCl, 50 mM Tris pH 8.0) and 2 mM CaCl2 for 16 hours at 37° C. Aggregated Exon1-Q46 was pelleted by centrifugation for 5 minutes at 13,000 rpm in a bench top centrifuge and re-dissolved in the same volume of assay buffer. Test compounds were prepared by titration in DMSO at 11 concentrations from 63 μM to 2 nM. For the RBA, Exon1-Q46 protein aggregates and test compounds were pre-incubated in assay buffer for 20 minutes at room temperature, in 100 μL/well in a 96-well plate (pp, round bottom). Then, ligand was added in 50 μL/well and incubated for 60 minutes at 37° C. Final assay concentrations were 1 μM to 30 pM test compound, 1 μM Exon1-Q46 protein (equivalent monomer concentration) and 0.3 nM ligand [^3H3-methyl]-5-((5-methoxypyridin-2-yl)methoxy)-2-(pyrazin-2-yl)benzo[d]oxazole. Samples were transferred onto GF/B filter plates and washed 2× with 200 μL PBS using a Filtermate Harvester. After drying filter plates for 1 hour at 55° C., the back of the plates were sealed with foil and 30 μL/well scintillation fluid (Packard MicroScint 40) added, incubated for 15 minutes in the dark and counted in a MicroBeta reader. For analysis, replicate data from independent assay plates were normalized towards 0% and 100% inhibition using control wells of vehicle (0% inhibition) and 1 μM unlabelled [^3H3-methyl]-5-((5-methoxypyridin-2-yl)methoxy)-2-(pyrazin-2-yl)benzo[d]oxazole (100% inhibition). IC50 values were determined with a sigmoidal inhibition model with four variables (top, bottom, slope, IC50) in a global fit using the normalized replicate data.
The results for various example compounds were as provided in the table below (+++<100 nM; ++100−500 nM; +>500 nM; ND: not determined): […]

T1 sequence (P42858 with tags, fused parts or gaps with the stated changes): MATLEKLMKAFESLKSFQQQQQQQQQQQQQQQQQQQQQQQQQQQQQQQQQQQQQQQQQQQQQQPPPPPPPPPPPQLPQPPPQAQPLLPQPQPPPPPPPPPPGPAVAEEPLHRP

| Compound | Mean Free Brain Fraction (%) [1] [%] | IC50 [2] [nM] |
| --- | --- | --- |
| COc1ccc2c(c1)CN(c1ccc(OCc3cccnc3)nc1)C2=O [Compound 11-1, 5-Methoxy-2-{6-[(pyridin-3-yl)methoxy]pyridin-3-yl}-2,3-dihydro-1H-isoindol-1-one] | 3.2 | < 100 |
| Cn1nc(N2Cc3cc(OCc4ccc(I)cn4)ccc3C2=O)ccc1=O [Compound 1-3, 5-[(5-Iodopyridin-2-yl)methoxy]-2-(1-methyl-6-oxo-1,6-dihydropyridazin-3-yl)-2,3-dihydro-1H-isoindol-1-one] | 1.2 | < 100 |

Further lines, results first:

| Mean Free Brain Fraction (%) [1] [%] | IC50 [2] [nM] | Compound |
| --- | --- | --- |
| 9.5 | < 100 | COc1ccc(COc2cc(F)c3c(c2)CN(c2ccc(=O)[nH]n2)C3=O)nc1 [Compound 10-2, 7-Fluoro-5-[(5-methoxypyridin-2-yl)methoxy]-2-(6-oxo-1,6-dihydropyridazin-3-yl)-2,3-dihydro-1H-isoindol-1-one] |
| 9.0 | < 100 | COc1ccc(COc2ccc3c(c2)CN(c2ccc(=O)n(CCF)n2)C3=O)nc1 [Compound 8-2, 2-[1-(2-Fluoroethyl)-6-oxo-1,6-dihydropyridazin-3-yl]-5-[(5-methoxypyridin-2-yl)methoxy]-2,3-dihydro-1H-isoindol-1-one] |
| 9.7 | < 100 | COc1cc(COc2ccc3c(c2)CN(c2ccc(=O)n(C)n2)C3=O)ncc1F [Compound 3-1, 5-[(5-Fluoro-4-methoxypyridin-2-yl)methoxy]-2-(1-methyl-6-oxo-1,6-di-hydropyridazin-3-yl)-2,3-dihydro-1H-isoindol-1-one] |
